In ChEMBL document CHEMBL1136563, “Pharmacophore-based discovery of substituted pyridines as novel dopamine transporter inhibitors” (Bioorg Med Chem Lett, 2003) one finds Ki data, which are given here for 16 molecules.

The target of assay [1] is Sodium-dependent serotonin transporter (Homo sapiens, UniProt P31645). The experiment in a line: Inhibition of [3H]-5-HT uptake evaluated at the Serotonin transporter.
Assay [2] concerns the target T1, Sodium-dependent dopamine transporter (Homo sapiens, UniProt Q01959). The experiment in a line: Inhibition of [3H]DA uptake evaluated at the dopamine transporter.
Assay [3] has as its target T1, Sodium-dependent dopamine transporter. The assay can be described thus: Affinity to displace binding of [3H]WIN-35428 to dopamine transporter.
In assay [4] the target is Sodium-dependent noradrenaline transporter (Homo sapiens, UniProt P23975). The experiment in a line: Inhibition of [3H]-NE uptake evaluated at the monoamine transporter (NET).
For assay [5], the target named is Sodium-dependent dopamine transporter (Rattus norvegicus, UniProt P23977). The experiment in a line: Inhibition of reuptake of DA into striatal nerve endings (synaptosomes). Type of assay: subcellular, Brain.

Consider `c1ccc(C(c2ccccc2)c2cccnc2)cc1`, for which the Ki is 12600 nM in assay [1], 860 nM in assay [2], 780 nM in assay [3] and 7320 nM in assay [4].
In the same order, the values of `c1ccc(Cc2ccncc2)cc1` are greater than 10000 nM, greater than 10000 nM, greater than 10000 nM and greater than 10000 nM.
With `CN(C)CCC(C#N)(c1ccccc1)c1ccccc1`, the inhibition constant (Ki) in assay [5] was greater than 1000 nM.
For the molecule `c1ccc(C(c2ccccc2)c2ccncc2)cc1`, the Ki turned out to be 200 nM in assay [5]; 1160 nM in assay [1]; 255 nM in assay [2]; 79 nM in assay [3]; 3460 nM in assay [4].
For the molecule `Clc1ccccc1/C=C(/c1ccccc1)c1ccccn1`, in assay [5], the Ki was greater than 1000 nM.
`c1ccc(CC(c2ccccc2)c2ccncc2)cc1` (configuration not stated): the Ki is 910 nM in assay [1], 263 nM in assay [2], 99 nM in assay [3] and 393 nM in assay [4].
For `c1cncc(-c2c3ccccc3cc3ccccc23)c1`, in that order: greater than 10000 nM, greater than 10000 nM, greater than 10000 nM and greater than 10000 nM.
In assay [5], `Clc1cnc(-c2ccccc2)n1Cc1ccccc1` yielded a Ki greater than 1000 nM.
Molecule `CN=C=C(c1ccccc1)c1ccccc1` showed a Ki in assay [5] greater than 1000 nM.
The molecule `CN=C=C(c1ccc(Cl)cc1)c1ccc(Cl)cc1` registered a Ki in assay [5] greater than 1000 nM.
The same measure, in the same setting: under `c1ccc2cc(-c3nnnn3-c3cnc4ccccc4c3)ccc2c1` stands greater than 1000 nM.
As to `c1ccc2c(-c3ccncc3)c3ccccc3cc2c1`, the Ki in assay [1], in assay [2], in assay [3] and in assay [4] was greater than 10000 nM in each case.
Regarding `c1ccc(C(c2ccccc2)c2ccccn2)cc1`, the Ki came out at 35000 nM in assay [1], 742 nM in assay [3] and 5530 nM in assay [4].
As for `c1ccc(Cc2ccnc(Cc3ccccc3)c2)cc1`, the affinity in assay [5] corresponds to a Ki of 2300 nM.
The same measure, in the same setting: for `N#Cc1c(Cl)nnc(-c2ccccc2)c1-c1ccccc1` the value was greater than 1000 nM; for `c1ccc(-c2nnnn2-c2cnc3ccccc3c2)cc1`, greater than 1000 nM.
